# Values of other authors as cited in US5972375A, “Polyvinyl alcohol compositions prepared by crosslinking in a freezing step” (Implico BV, priority 1992, dated 1999).
# Where two headings read alike, the source gives them in different places.
# Experiments:
# [1] = test system: Rat
# [2] = test system: Mouse
# [3] = test system: Primate
# [4] = test system: Rat; remark: listed apart in the source
# [5] = test system: Dog
smiles,measurement,setting,value
CC(C)=O [Acetone],Oral absorption LD50,[1]; oral,9.8 g/kg
"CN(C)C=O [DMS, Dimethylformamide]",Oral absorption LD50,[1]; oral,2.8 g/kg
"C[S+](C)[O-] [DMSO, dimethyl sulphoxide]",Oral absorption LD50,[1]; oral,19.7 g/kg
same,Percutaneous route LD50,[2],50 g/kg of Body weight
same,Intravenous route LD50,[3]; intravenous,4 g/kg of Body weight
same,Oral route LD50,[3]; oral,> 4 g/kg of Body weight
same,Percutaneous route LD50,[3]; percutaneous,> 11 g/kg of Body weight
same,"Inhalation, non-lethal at",[4]; 24 hr,2900 mg/m^3
same,"Inhalation, non-lethal at",[4]; 40 hr,2000 mg/m^3
same,Intravenous route LD50,[4]; intravenous,5.4 g/kg of Body weight
same,Percutaneous route LD50,[4]; percutaneous (undiluted),40 g/kg of Body weight
same,Intravenous route LD50,[5]; intravenous,2.5 g/kg of Body weight
same,Oral route LD50,[5]; oral,> 10 g/kg of Body weight
same,Percutaneous route LD50,[5]; percutaneous,> 11 g/kg of Body weight
CCO [Ethanol],Oral absorption LD50,"[1]; in vivo, po",7.1 g/kg
OCC(O)CO [Glycerol],Oral absorption LD50,"[1]; in vivo, po",12.6 g/kg
CN1CCCC1=O [N-Methylpyrrolidone],Oral absorption LD50,[1]; oral,4.2 g/kg
